Counter-ions that a name gives are not always drawn. Like-named read-outs stand apart in the source and are kept apart here.
Legend:
human NTCP [1] = target: T1, human NTCP (Homo sapiens, UniProt Q14973); experiment: Screening fluorescent competitive Myrcludex B-FITC binding assay (96-well, 10 µM drug)
T1 sequence (Q14973 1-349): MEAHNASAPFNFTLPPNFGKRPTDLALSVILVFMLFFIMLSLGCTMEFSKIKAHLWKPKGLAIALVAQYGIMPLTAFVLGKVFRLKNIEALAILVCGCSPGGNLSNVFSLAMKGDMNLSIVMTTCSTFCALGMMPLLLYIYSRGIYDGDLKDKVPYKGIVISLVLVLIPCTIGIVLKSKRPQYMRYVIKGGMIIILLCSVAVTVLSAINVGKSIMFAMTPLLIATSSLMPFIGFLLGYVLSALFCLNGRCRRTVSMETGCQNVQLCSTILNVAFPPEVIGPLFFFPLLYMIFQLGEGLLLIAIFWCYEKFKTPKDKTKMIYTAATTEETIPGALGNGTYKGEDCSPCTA

human NTCP [2] = target: T1, human NTCP; experiment: Screening taurocholate uptake assay (96-well, [14C]taurocholate, 10 µM drug)
[3] = screen, 10 µM drug, Myrcludex B-FITC binding
[4] = combined ranking from functional and binding screening assays
[5] = screen, 10 µM drug, taurocholate uptake
[6] = Prestwick library screen, 10 µM drug, B-score of Myrcludex B-FITC binding
[7] = Prestwick library screen, 10 µM drug, B-score of taurocholate uptake
[8] = combined ranking from functional and binding assay B-scores
[9] = Prestwick library screen, Myrcludex B-FITC binding, 10 µM drug
[10] = Prestwick library screen, taurocholate uptake, 10 µM drug
[11] = ranking score beside the functional and binding assay B-scores of the screen

| Structure (SMILES) | B-score binding assay (human NTCP [1]; [3]) | Ranking score (human NTCP [2]; [4]) | B-score functional assay (human NTCP [2]; [5]) | B-score binding assay (human NTCP [1]; [9]) | B-score functional assay (human NTCP [2]; [10]) | Ranking score (human NTCP [2]; [11]) | further results |
| --- | --- | --- | --- | --- | --- | --- | --- |
| O=P(O)(O)C(Cl)(Cl)P(=O)(O)O [Clodronate] | -0.166 | 443.089 | -0.468 |  |  |  |  |
| CC(C)/N=c1\cc2n(-c3ccc(Cl)cc3)c3ccccc3nc-2cc1Nc1ccc(Cl)cc1 [Clofazimine] | -0.74 | 436.188 | -0.006 |  |  |  |  |
| CCOC(=O)C(C)(C)Oc1ccc(Cl)cc1 [Clofibrate] |  |  |  |  |  |  | B-score binding assay (human NTCP [1]; [6]): 0.712; B-score functional assay (human NTCP [2]; [7]): 1.746; Ranking score (human NTCP [2]; [8]): 1068.42 |
| CC(C)(Oc1ccc(Cl)cc1)C(=O)O [Clofibric acid] |  |  |  |  |  |  | B-score binding assay (human NTCP [1]; [6]): 0.048; B-score functional assay (human NTCP [2]; [7]): 1.224; Ranking score (human NTCP [2]; [8]): 881.708 |
| CCN(CC)CCOc1ccc(C(=C(Cl)c2ccccc2)c2ccccc2)cc1.O=C(O)CC(O)(CC(=O)O)C(=O)O [Clomiphene citrate (Z,E)] |  |  |  | -0.291 | 0.862 | 678.964 |  |
| CN(C)CCCN1c2ccccc2CCc2ccc(Cl)cc21 [Clomipramine hydrochloride] |  |  |  | -0.277 | 4.061 | 759.266 |  |
| Cc1c(Cl)cccc1Nc1ncccc1C(=O)O.NCCCC[C@H](N)C(=O)O [Clonixin Lysinate] |  |  |  |  |  |  | B-score binding assay (human NTCP [1]): 0; B-score functional assay (human NTCP [2]): -1.707; Ranking score (human NTCP [2]): 317.248 |
| Cl.Clc1ccc(C(OCCN2CCCCC2)c2ccccc2)cc1 (stereo not drawn) [Cloperastine hydrochloride] |  |  |  |  |  |  | B-score binding assay (human NTCP [1]; [6]): 0.356; B-score functional assay (human NTCP [2]; [7]): 2.21; Ranking score (human NTCP [2]; [8]): 1021.61 |
| COC(=O)[C@H](c1ccccc1Cl)N1CCc2sccc2C1 [Clopidogrel] | -1.412 | 419.199 | 0.915 |  |  |  |  |
| Nc1cc(C(Cl)=C(Cl)Cl)c(S(N)(=O)=O)cc1S(N)(=O)=O [Clorsulon] |  |  |  | -0.388 | 0.953 | 659.111 |  |
| C[C@]12C[C@H](O)[C@H]3[C@@H](CCC4=CC(=O)CC[C@@]43C)[C@@H]1CC[C@@H]2C(=O)CO [Corticosterone] | -1.468 | 434.757 | 1.754 |  |  |  |  |
| CC(=O)OCC(=O)[C@@]1(O)CC[C@H]2[C@@H]3CCC4=CC(=O)CC[C@]4(C)[C@H]3[C@@H](O)C[C@@]21C [Cortisol acetate] |  |  |  | 0.369 | 0.009 | 752.137 |  |
| C[C@]12CCC(=O)C=C1CC[C@@H]1[C@@H]2C(=O)C[C@@]2(C)[C@H]1CC[C@]2(O)C(=O)CO [Cortisone] | -0.62 | 405.336 | -0.212 |  |  |  |  |
| O=C(O)c1cc(=O)c2c(OCC(O)COc3cccc4oc(C(=O)O)cc(=O)c34)cccc2o1 [Cromolyn disodium salt] |  |  |  |  |  |  | B-score binding assay (human NTCP [1]; [6]): 0.29; B-score functional assay (human NTCP [2]; [7]): 0.688; Ranking score (human NTCP [2]; [8]): 903.754 |
| CN(C)CCC=C1c2ccccc2C=Cc2ccccc21 [Cyclobenzaprine hydrochloride] |  |  |  | 0.264 | -0.009 | 718.919 |  |
| NS(=O)(=O)c1cc2c(cc1Cl)NC(CC1CCCC1)NS2(=O)=O (stereo not drawn) [Cyclopenthiazide] |  |  |  | 2.395 | -0.118 | 797.145 |  |
| O=P1(N(CCCl)CCCl)NCCCO1 (stereo not drawn) [Cyclophosphamide] |  |  |  |  |  |  | B-score binding assay (human NTCP [1]): 1.227; B-score functional assay (human NTCP [2]): 0.493; Ranking score (human NTCP [2]): 990.921 |
| CN1CCC(=C2c3ccccc3C=Cc3ccccc32)CC1 [Cyproheptadine hydrochloride] |  |  |  | 0.492 | -0.111 | 690.33 |  |
| CC(=O)O[C@]1(C(C)=O)CC[C@H]2[C@@H]3C=C(Cl)C4=CC(=O)[C@@H]5C[C@@H]5[C@]4(C)[C@H]3CC[C@@]21C [Cyproterone acetate] |  |  |  | 0.796 | -0.245 | 678.19 |  |
| Nc1ccn([C@@H]2O[C@H](CO)[C@@H](O)[C@@H]2O)c(=O)n1 [Cytarabine] |  |  |  |  |  |  | B-score binding assay (human NTCP [1]; [6]): 0.655; B-score functional assay (human NTCP [2]; [7]): 0.582; Ranking score (human NTCP [2]; [8]): 944.957 |
| N[C@@H]1CON=C1O [D-cycloserine] |  |  |  | 0.464 | -0.174 | 667.017 |  |

| Structure (SMILES) | B-score binding assay (human NTCP [1]; [3]) | Ranking score (human NTCP [2]; [4]) | B-score functional assay (human NTCP [2]; [5]) | B-score binding assay (human NTCP [1]; [9]) | B-score functional assay (human NTCP [2]; [10]) | Ranking score (human NTCP [2]; [11]) | further results |
| --- | --- | --- | --- | --- | --- | --- | --- |
| COc1ccccc1N1CCN(CCCCNC(=O)c2ccc3ccccc3c2)CC1.Cl.Cl [DO 897/99] | -0.125 | 447.929 | -0.485 |  |  |  |  |
| CN(C)/N=N/c1[nH]cnc1C(N)=O [Dacarbazine] |  |  |  |  |  |  | B-score binding assay (human NTCP [1]; [6]): 1.762; B-score functional assay (human NTCP [2]; [7]): 0.084; Ranking score (human NTCP [2]; [8]): 928.431 |
| C#C[C@]1(O)CC[C@H]2[C@@H]3CCC4=Cc5oncc5C[C@]4(C)[C@H]3CC[C@@]21C [Danazol] | -0.305 | 407.041 | -0.499 |  |  |  |  |
| O=C1CN(/N=C/c2ccc(-c3ccc([N+](=O)[O-])cc3)o2)C(=O)[N-]1.[Na+] [Dantrolene sodium salt] | -1.319 | 342.783 | -0.011 |  |  |  |  |
| NC(=O)C(c1ccccc1)(c1ccccc1)[C@@H]1CCN(CCc2ccc3c(c2)CCO3)C1 [Darifenacin hydrobromide] |  |  |  |  |  |  | B-score binding assay (human NTCP [1]): 0.023; B-score functional assay (human NTCP [2]): 2.058; Ranking score (human NTCP [2]): 899.12 |
| COc1cccc2c1C(=O)c1c(O)c3c(c(O)c1C2=O)C[C@@](O)(C(C)=O)C[C@@H]3O[C@H]1C[C@H](N)[C@H](O)[C@H](C)O1 [Daunorubicin hydrochloride] |  |  |  | 6.093 | -0.357 | 740.439 |  |
| N=C(N)N1CCc2ccccc2C1 [Debrisoquin sulfate] |  |  |  |  |  |  | B-score binding assay (human NTCP [1]; [6]): 0.059; B-score functional assay (human NTCP [2]; [7]): 2.382; Ranking score (human NTCP [2]; [8]): 932.772 |
| C[N+](C)(C)CCCCCCCCCC[N+](C)(C)C [Decamethonium bromide] | 0.021 | 433.577 | -0.848 |  |  |  |  |
| CC(=O)OCC(=O)[C@@]12N=C(C)O[C@@H]1C[C@H]1[C@@H]3CCC4=CC(=O)C=C[C@]4(C)[C@H]3[C@@H](O)C[C@@]12C [Deflazacort] | -0.898 | 446.866 | 0.131 |  |  |  |  |
| C[C@H](CCC(=O)O)[C@H]1CC[C@H]2[C@@H]3C(=O)C[C@@H]4CC(=O)CC[C@]4(C)[C@H]3CC(=O)[C@]12C [Dehydrocholic acid] | -0.083 | 309.304 | -1.555 |  |  |  |  |
| CC(=O)O[C@H]1CC[C@@]2(C)C(=CC[C@@H]3[C@@H]2CC[C@]2(C)C(=O)CC[C@@H]32)C1 [Dehydroisoandosterone 3-acetate] | -0.747 | 438.862 | 0.002 |  |  |  |  |
| CN(CCCCCCCCCCN(C)C(=O)Oc1cccc([N+](C)(C)C)c1)C(=O)Oc1cccc([N+](C)(C)C)c1 [Demecarium bromide] |  |  |  |  |  |  | B-score binding assay (human NTCP [1]; [6]): 0.623; B-score functional assay (human NTCP [2]; [7]): 0.13; Ranking score (human NTCP [2]; [8]): 853.475 |
| CN(C)[C@@H]1C(O)=C(C(N)=O)C(=O)[C@@]2(O)C(O)=C3C(=O)c4c(O)ccc(Cl)c4[C@@H](O)[C@H]3C[C@@H]12 [Demeclocycline hydrochloride] |  |  |  | 0.096 | 0.083 | 738.496 |  |
| CN1[C@@H]2CC[C@H]1C[C@@H](OC1c3ccccc3CCc3ccccc31)C2.O=C(O)CC(O)(CC(=O)O)C(=O)O [Deptropine citrate] |  |  |  |  |  |  | B-score binding assay (human NTCP [1]; [6]): 0.633; B-score functional assay (human NTCP [2]; [7]): 0.947; Ranking score (human NTCP [2]; [8]): 1000.12 |
| Cc1cc(N)c2ccccc2[n+]1CCCCCCCCCC[n+]1c(C)cc(N)c2ccccc21 [Dequalinium dichloride] |  |  |  | 3.994 | -0.527 | 680.714 |  |
| CC1(C)O[C@@H]2C[C@H]3[C@@H]4CCC5=CC(=O)C=C[C@]5(C)[C@H]4[C@@H](O)C[C@]3(C)[C@]2(C(=O)CO)O1 [Desonide] |  |  |  | 0.993 | -0.358 | 665.567 |  |
| CCN[C@@H](C)Cc1cccc(C(F)(F)F)c1 [Dexfenfluramine hydrochloride] | -0.169 | 401.597 | -0.697 |  |  |  |  |
| CC(=O)Nc1c(I)c(NC(C)=O)c(I)c(C(=O)O)c1I.O.O [Diatrizoic acid dihydrate] |  |  |  | 1.833 | -0.248 | 739.319 |  |
| CC1=NS(=O)(=O)c2cc(Cl)ccc2N1 [Diazoxide] | -0.26 | 331.971 | -1.121 |  |  |  |  |
| NS(=O)(=O)c1cc(Cl)c(Cl)c(S(N)(=O)=O)c1 [Dichlorphenamide] |  |  |  |  |  |  | B-score binding assay (human NTCP [1]; [6]): 2.215; B-score functional assay (human NTCP [2]; [7]): 0.709; Ranking score (human NTCP [2]; [8]): 1091.62 |
| Cc1onc(-c2c(Cl)cccc2Cl)c1C(=O)N[C@@H]1C(=O)N2[C@@H]1SC(C)(C)[C@@H]2C(=O)[O-].O.[Na+] [Dicloxacillin sodium salt hydrate] |  |  |  |  |  |  | B-score binding assay (human NTCP [1]; [6]): 0.373; B-score functional assay (human NTCP [2]; [7]): 0.63; Ranking score (human NTCP [2]; [8]): 908.983 |
